Experimental data taken from patent US20230135093A1, “TRIAZOLYL DERIVATIVES AS GABA A ALPHA5 PAM” (Hoffmann-La Roche Inc., priority 2020, published 2023).

What was measured:
h-GABA-A α5β3γ2 [1] = biological target: T1, h-GABA-A α5β3γ2 (Homo sapiens, UniProt P18507+P31644); assay: [3H]flumazenil competition binding assay on membranes of HEK293 cells expressing GABAA receptors; settings: Table 1; displacement of [3H]-Flumazenil (0.5 nM), HEK293 cells expressing human receptors, means of two determinations
T1 construct: expressed in transfected cells; host or cells: Xenopus laevis oocytes, micro-injected with subunit RNA
How it was run: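 Competition for [3H]flumazenil (0.5 nM for α5 subunits) was measured at equilibrium (1 h, 4 °C, Krebs-tris buffer pH 7.5) on transiently transfected HEK293 membranes bearing human α5β3γ2 receptors, with 10^−5 M diazepam defining nonspecific binding. Ki values were derived from filtration and scintillation counting, averaged over duplicates.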

h-GABA-A α5β3γ2 [2] = biological target: T1, h-GABA-A α5β3γ2; assay: Two-electrode voltage clamp electrophysiology in Xenopus oocytes expressing GABAA receptors (modulation of GABA EC20 current); type: cell-based; settings: Table 1; for Efficacy (GABA) %: % modulation of GABA EC20 = 100*(Fold increase-1); for Fold increase h-GABA-A α5β3γ2 oocyte: Xenopus oocytes, GABA EC20, test compound at approximatively 30 fold its Ki
How it was run: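 GABA EC20 currents in human α5β3γ2-expressing Xenopus oocytes, voltage-clamped at −80 mV (room temperature, pH 7.4), measured with and without compound at ~30× Ki applied 0.5 min into the second GABA pulse. % modulation = 100×(fold increase−1), taken from the extremum of the current ratio trace; at least 3 oocytes per concentration.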

| Structure (SMILES) | Ki (h-GABA-A α5β3γ2 [1]) [µM] | Efficacy (GABA) % (h-GABA-A α5β3γ2 [2]) [%] | Fold increase h-GABA-A α5β3γ2 oocyte (h-GABA-A α5β3γ2 [2]) |
| --- | --- | --- | --- |
| Cn1cc(-c2cnn(Cc3c(-c4ccc(Cl)cc4F)nnn3C)c(=O)c2)cn1 [Example 64, 2-((5-(4-chloro-2-fluoro-phenyl)-3-methyl-triazol-4-yl)methyl)-5-(1-methylpyrazol-4-yl)pyridazin-3-one] | 0.0112 | 76 | 1.76 |
| Cc1nnn(-c2ccc(Cl)cc2F)c1Cn1ncc(-c2cnn(C3CC3)c2)cc1=O [Example 65, 2-((3-(4-chloro-2-fluoro-phenyl)-5-methyl-triazol-4-yl)methyl)-5-(1-cyclopropylpyrazol-4-yl)pyridazin-3-one] | 0.0475 | 42 | 1.42 |
| CCOc1ncc(-c2cnn(Cc3c(-c4ccc(Cl)cc4F)nnn3C)c(=O)c2)cc1C [Example 66, 2-((5-(4-chloro-2-fluoro-phenyl)-3-methyl-triazol-4-yl)methyl)-5-(6-ethoxy-5-methyl-3-pyridyl)pyridazin-3-one] | 0.019 | 143 | 2.43 |
| Cn1nnc(-c2ccc(Cl)cc2F)c1Cn1ncc(-c2cnn(C3CC3)c2)cc1=O [Example 67, 2-((5-(4-chloro-2-fluoro-phenyl)-3-methyl-triazol-4-yl)methyl)-5-(1-cyclopropylpyrazol-4-yl)pyridazin-3-one] | 0.011 | 55 | 1.55 |
| COc1ncc(-c2cnn(Cc3c(C)nnn3-c3ccc(Cl)cc3F)c(=O)c2)cc1Cl [Example 68, 2-((3-(4-chloro-2-fluoro-phenyl)-5-methyl-triazol-4-yl)methyl)-5-(5-chloro-6-methoxy-3-pyridyl)pyridazin-3-one] | 0.0322 | 130 | 2.3 |
| COc1ncc(-c2cnn(Cc3c(-c4ccc(Cl)cc4F)nnn3C)c(=O)c2)cc1Cl [Example 69, 2-((5-(4-chloro-2-fluoro-phenyl)-3-methyl-triazol-4-yl)methyl)-5-(5-chloro-6-methoxy-3-pyridyl)pyridazin-3-one] | 0.0043 | 125 | 2.25 |
| CC(C)OC1CN(c2cnn(Cc3c(-c4ccc(C(F)(F)F)cc4F)nnn3C)c(=O)c2)C1 [Example 70, 2-[[5-[2-fluoro-4-(trifluoromethyl)phenyl]-3-methyl-triazol-4-yl]methyl]-5-(3-isopropoxyazetidin-1-yl)pyridazin-3-one] | 0.025 | 71 | 1.71 |
| Cn1nnc(-c2ccc(C(F)(F)F)cc2F)c1Cn1ncc(N2CC(OC(F)F)C2)cc1=O [Example 71, 5-[3-(difluoromethoxy)azetidin-1-yl]-2-[[5-[2-fluoro-4-(trifluoromethyl)phenyl]-3-methyl-triazol-4-yl]methyl]pyridazin-3-one] | 0.0122 | 75 | 1.75 |
| CCOC1CN(c2cnn(Cc3c(-c4ccc(C(F)(F)F)cc4F)nnn3C)c(=O)c2)C1 [Example 72, 5-(3-ethoxyazetidin-1-yl)-2-[[5-[2-fluoro-4-(trifluoromethyl)phenyl]-3-methyl-triazol-4-yl]methyl]pyridazin-3-one] | 0.0194 | 70 | 1.7 |
| Cn1nnc(-c2ccc(Cl)cc2F)c1Cn1ncc(N2CC(Oc3cnccn3)C2)cc1=O [Example 73, 2-[[5-(4-chloro-2-fluoro-phenyl)-3-methyl-triazol-4-yl]methyl]-5-(3-pyrazin-2-yloxyazetidin-1-yl)pyridazin-3-one] | 0.0077 | 90 | 1.9 |
| Cn1nnc(-c2ccc(C(F)(F)F)cc2F)c1Cn1ncc(N2CC(OCC(F)(F)F)C2)cc1=O [Example 74, 2-[[5-[2-fluoro-4-(trifluoromethyl)phenyl]-3-methyl-triazol-4-yl]methyl]-5-[3-(2,2,2-trifluoro-ethoxy)azetidin-1-yl]pyridazin-3-one] | 0.0118 | 86 | 1.86 |
| Cn1nnc(-c2ccc(C(F)(F)F)cc2F)c1Cn1ncc(N2CC3(CCCO3)C2)cc1=O [Example 75, 2-[[5-[2-fluoro-4-(trifluoromethyl)phenyl]-3-methyl-triazol-4-yl]methyl]-5-(5-oxa-2-azaspiro[3.4]octan-2-yl)pyridazin-3-one] | 0.023 | 73 | 1.73 |
| Cn1nnc(-c2ccc(C(F)(F)F)cc2F)c1Cn1ncc(N2CC(OCC(F)F)C2)cc1=O [Example 76, 5-[3-(2,2-difluoroethoxy)azetidin-1-yl]-2-[[5-[2-fluoro-4-(trifluoromethyl)phenyl]-3-methyl-triazol-4-yl]methyl]pyridazin-3-one] | 0.0116 | 115 | 2.15 |
| Cn1nnc(-c2ccc(C(F)(F)F)cc2F)c1Cn1ncc(N2CC(OC3CCC3)C2)cc1=O [Example 77, 5-[3-(cyclo-butoxy)azetidin-1-yl]-2-[[5-[2-fluoro-4-(trifluoro-methyl)phenyl]-3-methyl-triazol-4-yl]methyl]pyridazin-3-one] | 0.0184 | 66 | 1.66 |
| Cn1nnc(-c2ccc(Cl)cc2F)c1Cn1ncc(N2CC(Oc3ccncn3)C2)cc1=O [Example 78, 2-[[5-(4-chloro-2-fluoro-phenyl)-3-methyl-triazol-4-yl]methyl]-5-(3-pyrimidin-4-yloxyazetidin-1-yl)pyridazin-3-one] | 0.0112 | 106 | 2.06 |
| Cn1nnc(-c2ccc(Cl)cc2F)c1Cn1ncc(N2CC(Oc3cccnn3)C2)cc1=O [Example 79, 2-((5-(4-chloro-2-fluoro-phenyl)-3-methyl-triazol-4-yl)methyl)-5-(3-pyridazin-3-yloxyazetidin-1-yl)pyridazin-3-one] | 0.011 | 88 | 1.88 |
| Cn1nnc(-c2ccc(Cl)cc2F)c1Cn1ncc(N2CC(Oc3ccc(Cl)cn3)C2)cc1=O [Example 80, 2-[[5-(4-chloro-2-fluoro-phenyl)-3-methyl-triazol-4-yl]methyl]-5-[3-[(5-chloro-2-pyridyl)oxy]azetidin-1-yl]pyridazin-3-one] | 0.0168 | 72 | 1.72 |
